Experimental data as given in US7169768B1, “Method of decreasing atherosclerosis and its complications” (priority 1997, dated 2007).

Experiment: Retrospective questionnaire study of patient-reported cardiac events (heart attack, coronary artery bypass or angioplasty)
Type: in vivo, patients
Details: for Events/Year: cardiac events per subject year, patients on drug for at least one year; for Cardiac Events: number of cardiac events (history of heart attack, coronary artery bypass or angioplasty) in patients on drug for at least one year; for heart attacks compared with controls (in words): treated patients vs controls; for observed difference between the proportions vs Total Control: treated group vs Total Control (Groups 1 + 4)
Method: A retrospective study was performed which compared the rates of patient reported heart attack in several groups: 1—control group of males entering the urology office for any routine complaint. 2—a group of prostate cancer patients treated with Leuprolide acetate, a LHRH inhibitor. 3—a group of prostate cancer patients treated with Goserelin acetate (Zoladex), a LHRH inhibitor. 4—a group of prostate cancer patients not treated with hormonal manipulation (neither Leuprolide or Goserelin). 5—a group of patients treated with Finasteride (another form of hormonal manipulation). 6—all patients on LHRH inhibitors (group 2+group 3). The patients on either leuprolide acetate or goserelin acetate were treated with the recommended doses indicated for the treatment of prostatic carcinoma, at either one or three month intervals depending on the preparation used. Leuprolide was dosed at 7.5 mg monthly (single intramuscular injection) or at 22.5 mg at 3 month intervals (single intramuscular injection). Goserelin was dosed at 3.6 mg monthly (subcutaneous injection) or at a dose of 10.8 mg at 3 month intervals (subcutaneous injection). The various groups of office patients were given a questionnaire. In groups 2, 3 and 5 only those on drug for at least one year were considered. Cardiac event is defined as either the history of a heart attack or occurrence of coronary artery bypass or angioplasty. In control groups only events occurring in the 3 years prior to the questionnaire are charted.

SMILES	observed difference between the proportions vs Group 1 (Control) (Group 5 vs Group 1 (control, no cancer))	Events/Year	Cardiac Events	heart attacks compared with controls (in words)	observed difference between the proportions vs Total Control
CC(C)(C)NC(=O)[C@H]1CC[C@H]2[C@@H]3CC[C@H]4NC(=O)C=C[C@]4(C)[C@H]3CC[C@]12C [Finasteride]	0.0186	.0165	4	fewer heart attacks than control	–
CC(C)C[C@H](NC(=O)[C@@H](COC(C)(C)C)NC(=O)[C@H](Cc1ccc(O)cc1)NC(=O)[C@H](CO)NC(=O)[C@H](Cc1c[nH]c2ccccc12)NC(=O)[C@H](Cc1cnc[nH]1)NC(=O)[C@@H]1CCC(=O)N1)C(=O)N[C@@H](CCCNC(=N)N)C(=O)N1CCC[C@H]1C(=O)NNC(N)=O [goserelin acetate, pyro-Glu-His-Trp-Ser-Tyr-D-Ser(Bu)-Leu-Arg-Pro-Azgly-NH2 acetate]	–	.0161	1	fewer heart attacks than controls	0.0177
CC(=O)O.CCNC(=O)[C@@H]1CCCN1C(=O)[C@H](CCCNC(=N)N)NC(=O)[C@H](CC(C)C)NC(=O)[C@@H](CC(C)C)NC(=O)[C@H](Cc1ccc(O)cc1)NC(=O)[C@H](CO)NC(=O)[C@H](Cc1c[nH]c2ccccc12)NC(=O)[C@H](Cc1c[nH]cn1)NC(=O)[C@@H]1CCC(=O)N1 [leuprolide acetate, 5-oxo-L-prolyl-L-histidyl-L-tryptophyl-L-seryl-L-tyrosyl-D-leucyl-L-leucyl-L-arginyl-N-ethyl-L-prolinamide acetate salt]	–	.00847	1	fewer heart attacks than controls	0.0253
